What was measured:
Type in all cases: in vivo, mice
Gadd45b [1] = experiment: Gene expression, liver tissue; conditions: vs Se-deficient, minus = down
Source text: (§1) Animal Care. Male C57BL/6J mice were housed singly and started on the experimental diets described below immediately after weaning (21 days of age). The mice were maintained in the Shared Aging Rodent Facility at the William S. Middleton Memorial Veterans Administration Medical Center (Madison, Wis.). Temperature and humidity were maintained at constant levels. Room light was controlled to provide 12-hr cycles of light and dark.
(§2) Experimental diets were created by Harlan Teklad (Madison, Wis.). Selenium content of the diets was determined by Covance Inc. (Madison, Wis.). Five (5) animals were included in each of the following treatment groups: a diet deficient in selenium (SD); a diet supplemented with selenomethionine (SM, obtained from Sigma, St. Louis, Mo.) such that the final selenium content of the diet was one (1) part per million; a diet supplemented with sodium selenite (SS, Sigma) such that the final concentration of selenium in this diet was one (1) part per million; or a diet supplemented with the yeast selenium SEL-PLEX (SP, Alltech, Lexington, Ky.), such that the final concentration of selenium in this diet was one (1) part per million. SEL-PLEX. Mice were provided with water and their respective diet ad libitum for 100 days. […]
(§3) • 1. […] Additionally, a “signal intensity score” was calculated for each probe set as the sum of the signal intensities for all chips (N=20). • 2. […]

[2] = tested on: Growth arrest and DNA-damage-inducible 45 beta (Gadd45b); experiment: Microarray gene expression, mouse intestine; conditions: intestinal tissue; vs Se-deficient; minus = down
Source text: as §1
(§4) Experimental diets were created by Harlan Teklad (Madison, Wis.). Selenium content of the diets was determined by Covance Inc. (Madison, Wis.). Five (5) animals were included in each of the following treatment groups: a diet deficient in selenium (SD); a diet supplemented with selenomethionine (SM, obtained from Sigma, St. Louis, Mo.) such that the final selenium content of the diet was one (1) part per million; a diet supplemented with sodium selenite (SS, Sigma) such that the final concentration of selenium in this diet was one (1) part per million; or a diet supplemented with the yeast selenium SEL-PLEX (SP, Alltech, Lexington, Ky.), such that the final concentration of selenium in this diet was one (1) part per million. SEL-PLEX. Mice were provided with water and their respective diet ad libitum for 100 days. Diets were stored at the dark at 4° C. and fresh diet was added to feeder twice weekly.
(§5) Tissue sample preparation and microarray analysis. Mice were killed at 100 days of age by cervical dislocation. For intestinal expression studies, the intestine was flushed twice with saline solution and small intestine was measured and divided in three equal segments. A 3-cm region of the middle segment of the small intestine corresponding to the jejunum (˜300 mg of tissue) was cut and rinsed again with physiological saline to completely remove contents, flash frozen in liquid nitrogen and stored at −80° C. For brain (e.g., cerebral cortex) studies, the cerebral cortex was separated from the surrounding brain tissue and was flash frozen in liquid nitrogen and stored at −80° C.
(§6) Total RNA was isolated from using the guanidinium isothiocyanate method of TRIZOL (Life Technologies, Grand Island, N.Y.) and individual samples were used for gene expression profiles. Total RNA was cleaned up by RNeasy Mini kit (Qiagen, Valencia, Calif.). Target RNA was prepared by converting […] total RNA into double-strand cDNA using GeneChip Expression 3′-Amplification Reagents One-Cycle cDNA Synthesis Kit (Affymetrix, Santa Clara, Calif.) with a T7-(dT)24 primer incorporating a T7 RNA polymerase promoter. After cleaning up double-strand cDNA using Genechip Sample Cleanup Module (Affymetrix, Santa Clara, Calif.), biotin-labeled cRNA was synthesized from double-strand cDNA using GeneChip Expression 3′-Amplification Reagents for IVT Labeling (Affymetrix, Santa Clara, Calif.). The biotin-labeled cRNA was cleaned up using Genechip Sample Cleanup Module and was fragmented by heating (35 min at 94° C.).
(§7) Fifteen (15) μg of cRNA fragments were hybridized (16 h at 45° C.) to Mouse Genome 430 2.0 Array (Affymetrix, Santa Clara, Calif.) using GeneChip Hybridization Oven 640. After hybridization, the gene chips were automatically washed and stained with streptavidin-phycoerythrin biotinylated anti-streptavidin using Affymetrix GeneChip Fluidics Station 450. The DNA chips were scanned with Affymetrix GeneChip Scanner 3000 (Affymetrix, Santa Clara, Calif.) to detect the cell signal intensities by laser. All calculations were performed with Affymetrix GeneChip Operating Software (GCOS) version 1.3 after scanning
(§8) • 1. The spreadsheet containing probe set identifiers and signal intensity values was opened in Microsoft Excel (version 11.1.1 for the Macintosh OS-X operating system) and summary statistics were generated (mean signal intensity for each treatment group, standard error of the mean). Two-tailed t-tests (equal variance) were performed for the following treatment groups: SM vs. SD, SS vs. SD, and SP vs. SD. […]

Selenoprotein W (SelW) = experiment: Microarray gene expression, mouse intestine; conditions: 1 ppm Se diet 100 days vs Se-deficient diet
Source text: as §1, §4, §5, §6, §7, §8

[3] = tested on: LIM homeobox protein 8 gene (Lhx8); experiment: Microarray gene expression, mouse intestine; conditions: vs Se-deficient subjects, p<0.01
Source text: as §1, §4, §5, §6, §7, §8

Neurogenin 3 (Neurog3) = experiment: Microarray gene expression, mouse intestine; conditions: vs Se-deficient diet
Source text: as §1, §4, §5, §6, §7, §8

selenoprotein N1 (Sepn1) = experiment: Microarray gene expression, mouse intestine; conditions: 1 ppm Se diet 100 days vs Se-deficient diet, p<0.02
Source text: as §1, §4, §5, §6, §7, §8

[4] = tested on: sprouty homolog 2 gene (Spry2); experiment: Microarray gene expression, mouse intestine; conditions: relative to Se-deficient controls
Source text: as §1, §4, §5, §6, §7, §8

Prohibitin (Phb) = experiment: Microarray gene expression, mouse intestine; conditions: vs Se-deficient diet, p<0.05
Source text: as §1, §4, §5, §6, §7, §8

Gadd45g1p = experiment: Microarray gene expression, mouse intestine; conditions: p<0.05
Source text: as §1, §4, §5, §6, §7, §8

SelR (Selenoprotein X1) = experiment: Microarray gene expression, mouse intestine; conditions: 1 ppm Se diet 100 days vs Se-deficient diet
Source text: as §1, §4, §5, §6, §7, §8

[5] = tested on: transforming growth factor beta 2 (TGF-β2); experiment: Microarray gene expression, mouse intestine; conditions: vs controls
Source text: as §1, §4, §5, §6, §7, §8

[6] = tested on: Growth arrest and DNA-damage-inducible 45 gamma (Gadd45g); experiment: Microarray gene expression, mouse intestine; conditions: vs Se-deficient diet, minus = down
Source text: as §1, §4, §5, §6, §7, §8

[7] = tested on: type II iodothyronine deiodinase (Dio2); experiment: Microarray gene expression, mouse intestine; conditions: 1 ppm Se diet 100 days vs Se-deficient diet
Source text: as §1, §4, §5, §6, §7, §8

Glyoxalase 1 (Glo1) = experiment: Microarray gene expression, mouse intestine; conditions: 1 ppm Se diet 100 days vs Se-deficient diet, p<0.01
Source text: as §1, §4, §5, §6, §7, §8

[8] = tested on: Type 1 iodothyronine deiodinase; experiment: Microarray gene expression, mouse intestine; conditions: 1 ppm Se diet 100 days vs Se-deficient diet
Source text: as §1, §4, §5, §6, §7, §8

CORS-26 = experiment: Microarray gene expression, mouse cerebral cortex; conditions: Example 10 (brain); vs Se-deficient diet
Source text: as §1, §4, §5, §6, §7, §8

Gadd45b [9] = experiment: Microarray gene expression, mouse cerebral cortex; conditions: cortex tissue, vs Se-deficient, minus = down
Source text: as §1, §4, §5, §6, §7, §8

GST genes = experiment: Microarray gene expression, mouse intestine (summary of Table 3); conditions: vs Se-deficient diet
Source text: as §1
as §2, with “SEL-PLEX.” for “SEL-PLEX. Mice were provided with water and their respective diet ad libitum for 100 days.”
(§9) Tissue sample preparation and microarray analysis. […] For intestinal expression studies, the intestine was flushed twice with saline solution and small intestine was measured and divided in three equal segments. […]

[10] = tested on: glycogen synthase kinase-3-beta (GSK-3β); experiment: Microarray gene expression, tau kinases, brain; conditions: vs non-selenium supplemented diet; minus = down; * significant; listed as SM
Source text: as §1, §4, §5
(§10) Total RNA was isolated from using the guanidinium isothiocyanate method of TRIZOL (Life Technologies, Grand Island, N.Y.) and individual samples were used for gene expression profiles. Total RNA was cleaned up by RNeasy Mini kit (Qiagen, Valencia, Calif.). Target RNA was prepared by converting […] total RNA into double-strand cDNA using GeneChip Expression 3′-Amplification Reagents One-Cycle cDNA Synthesis Kit (Affymetrix, Santa Clara, Calif.) with a T7-(dT)24 primer incorporating a T7 RNA polymerase promoter. […]

[11] = tested on: cyclin-dependent kinase 5 (Cdk-5); experiment: Microarray gene expression, tau kinases, brain; conditions: vs non-selenium supplemented diet; minus = down; * significant; listed as SM
Source text: as §1, §4, §5, §10

Gadd45b [12] = experiment: Gene expression, skeletal muscle tissue; conditions: vs Se-deficient, minus = down
Source text: as §1, §2, §3

[13] = tested on: complement component genes; experiment: Microarray gene expression, mouse cerebral cortex (summary of Table 6); conditions: p<0.01
Source text: as §1
as §2, with “SEL-PLEX.” for “SEL-PLEX. Mice were provided with water and their respective diet ad libitum for 100 days.”
as §9

- fold down-regulation of Dio2 expression [7]: no ability to alter
- fold reduction of Glo1 expression (Glyoxalase 1 (Glo1)): not significantly affected
Compound: C[Se]CC[C@H](N)C(=O)O [SeM, selenomethionine]
- Fold change Gadd45b gene expression, liv (Table 14) (Gadd45b [1]): 1.24 fold
- Fold change Gadd45b gene expression, int (Table 14) [2]: −1.07 fold
- fold upregulation of Selenoprotein W (SelW) expression (Selenoprotein W (SelW)): not significantly altered
- fold upregulation of Lhx8 expression [3]: not significantly different
- fold upregulation of Neurog3 expression (Neurogenin 3 (Neurog3)): no significant alteration
- fold increase of selenoprotein N1 (Sepn1) gene expression (selenoprotein N1 (Sepn1)): not significantly affected
- fold reduction in Spry2 gene expression [4]: no alteration
- fold upregulation of Prohibitin (Phb) expression (Prohibitin (Phb)): 1.6 fold
- expression of Gadd45g1p in intestinal tissue (Gadd45g1p): decreased expression
- fold upregulation of SelR gene (SelR (Selenoprotein X1)): not significantly affected
- fold upregulation of TGF-β2 expression [5]: not altered
- FC Gadd45g expression (Table 2) [6]: −1.5 (p < 0.05) fold
- fold increase in expression of Type 1 iodothyronine deiodinase [8]: 2.0 fold
- fold reduction in expression of CORS-26 (CORS-26): no alteration
- Fold change Gadd45b gene expression, ctx (Table 14) (Gadd45b [9]; listed as Selenomethionine): −1.26 fold
- Fold change Gadd45b gene expression, ctx (Table 14) (Gadd45b [9]; listed as selenomethionine): significant reduction
- alteration of expression pattern of GST genes (summary in words) (GST genes): no alteration
- FC GsKβ3 (GSK-3β) gene expression [10]: −1.10 fold
- FC CdK5 gene expression [11]: −1.00 fold
- Fold change Gadd45b gene expression, skm (Table 14) (Gadd45b [12]): 1.02 fold
- down-regulation of complement component genes (summary in words) [13]: did not provide a statistically significant alteration
